Counter-ions that a name gives are not always drawn. Like-named read-outs stand apart in the source and are kept apart here.
Assays:
[1] = molecular target: cdk4/cyclin D1 (Homo sapiens, UniProt P11802); assay: Cyclin-dependent kinase assay, cdk4/cyclin D1; format: biochemical; details: cyclin D1/cdk4; GST-pRb substrate, 10 µM ATP
[2] = test system: HL-60; assay: In vitro proliferation assay (MTT), HL-60; format: cell-based; details: Homo sapiens
Method: (§1) The proliferation of tumor cells can be measured using a tetrazolium salt-based assay known as the MTT (3-[4,5-Dimethylthiazol-2-yl]-2,5-diphenyltetrazolium bromide) assay. The proliferation test is performed essentially as described by Carmichael et al., Cancer Res. 47: 936-942, 1987. For the assay, the cell lines are plated onto 96 well plates at 1000 to 2500 cells/well (depending on the properties of the individual cell lines), left to attach and recover overnight. […] After 3 days, the cells are incubated with MTT dye (3-[4,5-Dimethylthiazol-2-yl]-2,5-diphenyltetrazolium bromide, Sigma # M5655, 10 mg/ml in Hank's Buffered Saline) to estimate the amount of live cells remaining vs. concentration for the test compounds. Specifically, MTT solution is added to a final concentration of […] and the plates incubated at 37 C for 2 to 4 hr. The MTT and culture medium is then removed from the cultures and 200 µl of DMSO is added to solubilize the dye from the cell layer. The absorbance at 570 nm is determined for each culture using a Spectramax plate reader (Molecular Devices).
(§2) IC50s were determined from the raw data from either the MTT or SRB assays.
(§3) All of the cell lines were obtained from American Type Tissue Collection, with the ATCC accession number in parentheticals. MCF-7 and MDA-MB-231 cells were grown in improved minimum essential medium (Biofluids) without phenol red, supplemented with 5 % fetal bovine serum, 0.01 mg/ml gentamicin and 3 mM L-glutamine. All of the other cell lines were grown in RPMI 1640 medium (Life Technologies) supplemented with 5 % fetal bovine serum, 0.01 mg/ml gentamicin and 3 mM L-glutamine TABLE 3

[3] = test system: MDA-MB-435; assay: In vitro proliferation assay (MTT), MDA-MB-435; format: cell-based, human; details: Homo sapiens
Method in brief: (§4)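 Step one: plate 1000 to 2500 cells per well and let them recover overnight. Step two: treat with compound for 3 days. Step three: add MTT, dissolve dye in DMSO, read absorbance at 570 nm and determine IC50.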

[4] = test system: PC-3; assay: In vitro proliferation assay (MTT), PC-3; format: cell-based, human; details: Homo sapiens
Method in brief: as §4

[5] = test system: NCI-H460; assay: In vitro proliferation assay (MTT), NCI-H460; format: cell-based; details: Homo sapiens
Method: as §1, §2, §3

[6] = test system: Colo-205; assay: In vitro proliferation assay (MTT), Colo-205; format: cell-based; details: Homo sapiens
Method: as §1, §2

[7] = test system: Jurkat; assay: In vitro proliferation assay (MTT), Jurkat; format: cell-based; details: Homo sapiens, read-out: Jurkat Leuk. (IC50 µM)
Method: as §1, §2, §3

[8] = molecular target: cdk2/cyclin E (Homo sapiens, UniProt P24941); assay: Cyclin-dependent kinase assay, cdk2/cyclin E; details: CDK2 IC50, nM, GST-pRb substrate, 10 µM ATP
[9] = molecular target: cdk1/cyclin B (Homo sapiens, UniProt P06493); assay: Cyclin-dependent kinase assay, cdk1/cyclin B; details: CDK1 IC50, nM, Histone H1, 10 µM ATP
Chain of cdk1/cyclin B (P06493 whole entry): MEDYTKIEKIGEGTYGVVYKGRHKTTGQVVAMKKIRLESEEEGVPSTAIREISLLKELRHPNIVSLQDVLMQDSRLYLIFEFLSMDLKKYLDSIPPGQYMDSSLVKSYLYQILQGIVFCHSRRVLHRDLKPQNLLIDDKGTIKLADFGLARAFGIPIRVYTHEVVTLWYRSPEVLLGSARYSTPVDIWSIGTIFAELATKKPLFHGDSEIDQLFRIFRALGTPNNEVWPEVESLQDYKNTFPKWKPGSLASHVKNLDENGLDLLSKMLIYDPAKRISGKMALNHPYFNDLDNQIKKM
Chain of cdk1/cyclin B (P14635 whole entry partner): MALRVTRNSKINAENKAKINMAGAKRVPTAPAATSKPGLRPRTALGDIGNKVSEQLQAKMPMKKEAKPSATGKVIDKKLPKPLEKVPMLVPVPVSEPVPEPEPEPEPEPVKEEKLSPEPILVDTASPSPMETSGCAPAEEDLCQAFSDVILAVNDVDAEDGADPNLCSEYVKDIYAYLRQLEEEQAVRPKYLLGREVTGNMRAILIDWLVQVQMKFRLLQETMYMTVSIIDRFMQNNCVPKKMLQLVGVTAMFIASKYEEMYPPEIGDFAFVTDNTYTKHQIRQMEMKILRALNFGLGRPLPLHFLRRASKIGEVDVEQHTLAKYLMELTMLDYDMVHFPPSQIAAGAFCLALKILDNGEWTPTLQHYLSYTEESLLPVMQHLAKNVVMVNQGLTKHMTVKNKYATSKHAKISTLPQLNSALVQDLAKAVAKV

[10] = HL-60, MTT assay, value (SD, n) where given, read-out: HL-60 Leuk. (IC50 µM)
[11] = MDA-MB-435, MTT assay, value (SD, n) where given, read-out: MB-435 Breast (IC50 µM)
[12] = PC-3, MTT assay, value (SD, n) where given, read-out: PC-3 Prostate (IC50 µM)
[13] = NCI-H460, MTT assay, value (SD, n) where given, read-out: H-460 Lung (IC50 µM)
[14] = COLO 205, MTT assay, value (SD, n) where given, read-out: Colo-205 Colon (IC50 µM)
[15] = MTT assay, value (SD, n) where given

Chain of cdk4/cyclin D1 (P11802 whole entry): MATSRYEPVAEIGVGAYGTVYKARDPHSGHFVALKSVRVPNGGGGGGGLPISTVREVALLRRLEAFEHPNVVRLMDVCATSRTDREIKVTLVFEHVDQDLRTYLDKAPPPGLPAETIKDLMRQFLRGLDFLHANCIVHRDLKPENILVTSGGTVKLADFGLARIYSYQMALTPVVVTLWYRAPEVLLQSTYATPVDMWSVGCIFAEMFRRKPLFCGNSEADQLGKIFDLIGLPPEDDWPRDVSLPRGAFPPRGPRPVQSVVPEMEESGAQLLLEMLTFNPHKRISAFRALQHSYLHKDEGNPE
Chain of cdk4/cyclin D1 (P24385 whole entry partner): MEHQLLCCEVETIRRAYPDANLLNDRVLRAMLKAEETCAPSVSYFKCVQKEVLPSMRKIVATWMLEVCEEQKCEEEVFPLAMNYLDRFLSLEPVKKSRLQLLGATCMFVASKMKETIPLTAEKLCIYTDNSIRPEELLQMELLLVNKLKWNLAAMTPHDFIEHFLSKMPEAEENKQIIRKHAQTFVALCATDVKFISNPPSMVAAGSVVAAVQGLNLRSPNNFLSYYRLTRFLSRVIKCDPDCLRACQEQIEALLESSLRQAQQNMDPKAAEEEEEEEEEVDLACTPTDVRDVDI

SMILES: CCCCOC(=O)N1CCC(Nc2nc(N[C@H]3CC[C@H](N)CC3)nc3c2ncn3C2CCCC2)CC1 [compound 92, trans-4-[2-(4-Amino-cyclohexylamino)-9-cyclopentyl-9H-purin-6-ylamino]-piperidine-1-carboxylic acid butyl ester dihydrochloride]
- IC50 [1]: 2.1 µM
- IC50 [2, 10]: 0.07 µM
- IC50 [3, 11]: 0.33 µM
- IC50 [4, 12]: 0.2 µM
- IC50 [5, 13]: 0.2 µM
- IC50 [6, 14]: 0.2 µM
- IC50 [7, 15]: 0.25 µM
- IC50 [8]: 18 nM
- IC50 [9]: 45 nM

SMILES: CCOC(=O)N1CCC(Nc2nc(N[C@H]3CC[C@H](N)CC3)nc3c2ncn3C2CCCC2)CC1 [compound 93, trans-4-[2-(4-Amino-cyclohexylamino)-9-cyclopentyl-9H-purin-6-ylamino]-piperidine-1-carboxylic acid ethyl ester dihydrochloride]
- IC50 [1]: 0.856 µM
- IC50 [2, 10]: 0.07 µM
- IC50 [3, 11]: 0.25 µM
- IC50 [4, 12]: 0.26 µM
- IC50 [5, 13]: 0.2 µM
- IC50 [6, 14]: 0.18 µM
- IC50 [7, 15]: 0.16 µM
- IC50 [8]: 5 nM
- IC50 [9]: 46 nM

SMILES: N[C@H]1CC[C@H](Nc2nc(NC3CCN(C(=O)OCc4ccc([N+](=O)[O-])cc4)CC3)c3ncn(C4CCCC4)c3n2)CC1 [compound 94, trans-4-[2-(4-Amino-cyclohexylamino)-9-cyclopentyl-9H-purin-6-ylamino]-piperidine-1-carboxylic acid 4-nitro-benzyl ester dihydrochloride]
- IC50 [1]: 0.827 µM
- IC50 [2, 10]: 0.06 µM
- IC50 [3, 11]: 0.14 µM
- IC50 [4, 12]: 0.13 µM
- IC50 [5, 13]: 0.14 µM
- IC50 [6, 14]: 0.07 µM
- IC50 [7, 15]: 0.18 µM
- IC50 [8]: 69 nM
- IC50 [9]: 27 nM

SMILES: C=CCOC(=O)N1CCC(Nc2nc(N[C@H]3CC[C@H](N)CC3)nc3c2ncn3C2CCCC2)CC1 [compound 95, trans-4-[2-(4-Amino-cyclohexylamino)-9-cyclopentyl-9H-purin-6-ylamino]-piperidine-1-carboxylic acid allyl ester dihydrochloride]
- IC50 [1]: 0.526 µM
- IC50 [2, 10]: 0.06 µM
- IC50 [3, 11]: 0.24 µM
- IC50 [4, 12]: 0.21 µM
- IC50 [5, 13]: 0.2 µM
- IC50 [6, 14]: 0.1 µM
- IC50 [7, 15]: 0.18 µM
- IC50 [8]: 23 nM
- IC50 [9]: 75 nM

SMILES: N[C@H]1CC[C@H](Nc2nc(NC3CCN(C(=O)Oc4ccccc4[N+](=O)[O-])CC3)c3ncn(C4CCCC4)c3n2)CC1 [compound 99, trans-4-[2-(4-Amino-cyclohexylamino)-9-cyclopentyl-9H-purin-6-ylamino]-piperidine-1-carboxylic acid 2-nitro-phenyl ester dihydrochloride]
- IC50 [1]: 1.52 µM
- IC50 ([2]; HL-60, read-out: HL-60 Leuk. (IC50 µM)): < 0.02 µM
- IC50 ([3]; MDA-MB-435, read-out: MB-435 Breast (IC50 µM)): 0.12 µM
- IC50 ([4]; PC-3, read-out: PC-3 Prostate (IC50 µM)): 0.2 µM
- IC50 ([5]; NCI-H460, read-out: H-460 Lung (IC50 µM)): 0.16 µM
- IC50 ([6]; COLO 205, read-out: Colo-205 Colon (IC50 µM)): 0.05 µM
- IC50 [7]: 0.11 µM
- IC50 [8]: 9 nM
- IC50 [9]: 33 nM

SMILES: C#CCOC(=O)N1CCC(Nc2nc(N[C@H]3CC[C@H](N)CC3)nc3c2ncn3C2CCCC2)CC1 [compound 102, trans-4-[2-(4-Amino-cyclohexylamino)-9-cyclopentyl-9H-purin-6-ylamino]-piperidine-1-carboxylic acid prop-2-ynyl ester dihydrochloride]
- IC50 [1]: 0.926 µM
- IC50 [2, 10]: < 0.02 µM
- IC50 [3, 11]: 0.19 µM
- IC50 [4, 12]: 0.14 µM
- IC50 [5, 13]: 0.2 µM
- IC50 [6, 14]: 0.14 µM
- IC50 [7, 15]: 0.11 µM
- IC50 [8]: 42 nM
- IC50 [9]: 31 nM

SMILES: N[C@H]1CC[C@H](Nc2nc(NC3CCN(S(=O)(=O)c4cccc5ccccc45)CC3)c3ncn(C4CCCC4)c3n2)CC1 [compound 123, trans-N^2-(4-Amino-cyclohexyl)-9-cyclopentyl-N^6-[1-(naphthalene-1-sulfonyl)-piperidin-4-yl]-9H-purine-2,6-diamine dihydrochloride]
- IC50 [1]: 0.049 µM
- IC50 [2, 10]: 0.15 µM
- IC50 [3, 11]: 0.26 µM
- IC50 [4, 12]: 0.2 µM
- IC50 [5, 13]: 0.29 µM
- IC50 [6, 14]: 0.07 µM
- IC50 [7, 15]: 0.22 µM
- IC50 [8]: 54 nM
- IC50 [9]: 62 nM

SMILES: N[C@H]1CC[C@H](Nc2nc(NC3CCN(S(=O)(=O)c4ccc(C(F)(F)F)cc4[N+](=O)[O-])CC3)c3ncn(C4CCCC4)c3n2)CC1 [compound 132, trans-N^2-(4-Amino-cyclohexyl)-9-cyclopentyl-N^6-[1-(2-nitro-4-trifluoromethyl-benzenesulfonyl)-piperidin-4-yl]-9H-purine-2,6-diamine dihydrochloride]
- IC50 [1]: 0.59 µM
- IC50 [2, 10]: < 0.02 µM
- IC50 [3, 11]: 0.21 µM
- IC50 [4, 12]: 0.15 µM
- IC50 [5, 13]: 0.12 µM
- IC50 [6, 14]: 0.04 µM
- IC50 [7, 15]: 0.21 µM
- IC50 [8]: 35 nM
- IC50 [9]: 74 nM

SMILES: N[C@H]1CC[C@H](Nc2nc(NC3CCN(S(=O)(=O)c4cccc5cccnc45)CC3)c3ncn(C4CCCC4)c3n2)CC1 [compound 144, trans-N^2-(4-Amino-cyclohexyl)-9-cyclopentyl-N^6-[1-(quinoline-8-sulfonyl)-piperidin-4-yl]-9H-purine-2,6-diamine dihydrochloride]
- IC50 [1]: 0.075 µM
- IC50 [2, 10]: 0.12 µM
- IC50 [3, 11]: 0.16 µM
- IC50 [4, 12]: 0.18 µM
- IC50 [5, 13]: 0.33 µM
- IC50 [6, 14]: 0.05 µM
- IC50 [7, 15]: 0.25 µM
- IC50 [8]: 2 nM
- IC50 [9]: 2 nM

SMILES: N[C@H]1CC[C@H](Nc2nc(NC3CCN(C(=O)Nc4ccccc4)CC3)c3ncn(C4CCCC4)c3n2)CC1 [compound 146, trans-4-[2-(4-Amino-cyclohexylamino)-9-cyclopentyl-9H-purin-6-ylamino]-piperidine-1-carboxylic acid phenylamide dihydrochloride]
- IC50 [1]: 0.2 µM
- IC50 [2, 10]: 0.04 µM
- IC50 [3, 11]: 0.35 µM
- IC50 [4, 12]: 0.34 µM
- IC50 [5, 13]: 0.42 µM
- IC50 [6, 14]: < 0.02 µM
- IC50 [7, 15]: 0.32 µM
- IC50 [8]: 42 nM
- IC50 [9]: 18 nM

SMILES: N[C@H]1CC[C@H](Nc2nc(NC3CCN(C(=O)Nc4ccc(F)cc4)CC3)c3ncn(C4CCCC4)c3n2)CC1 [compound 147, trans-4-[2-(4-Amino-cyclohexylamino)-9-cyclopentyl-9H-purin-6-ylamino]-piperidine-1-carboxylic acid (4-fluoro-phenyl)-amide dihydrochloride]
- IC50 [1]: 0.258 µM
- IC50 [2, 10]: 0.03 µM
- IC50 [3, 11]: 0.33 µM
- IC50 [4, 12]: 0.36 µM
- IC50 [5, 13]: 0.56 µM
- IC50 [6, 14]: < 0.02 µM
- IC50 [7, 15]: 0.51 µM
- IC50 [8]: 46 nM
- IC50 [9]: 38 nM

SMILES: N[C@H]1CC[C@H](Nc2nc(NC3CCN(C(=O)Nc4ccc(Cl)cc4)CC3)c3ncn(C4CCCC4)c3n2)CC1 [compound 150, trans-4-[2-(4-Amino-cyclohexylamino)-9-cyclopentyl-9H-purin-6-ylamino]-piperidine-1-carboxylic acid (4-chloro-phenyl)-amide dihydrochloride]
- IC50 [1]: 0.091 µM
- IC50 [2, 10]: < 0.02 µM
- IC50 [3, 11]: 0.2 µM
- IC50 [4, 12]: 0.25 µM
- IC50 [5, 13]: 0.19 µM
- IC50 [6, 14]: 0.02 µM
- IC50 [7, 15]: 0.24 µM
- IC50 [8]: 55 nM
- IC50 [9]: 26 nM

SMILES: N[C@H]1CC[C@H](Nc2nc(NC3CCN(C(=O)Nc4cccc(C(F)(F)F)c4)CC3)c3ncn(C4CCCC4)c3n2)CC1 [compound 159, trans-4-[2-(4-Amino-cyclohexylamino)-9-cyclopentyl-9H-purin-6-ylamino]-piperidine-1-carboxylic acid (3-trifluoromethyl-phenyl)-amide dihydrochloride]
- IC50 [1]: 0.702 µM
- IC50 [2, 10]: 0.07 µM
- IC50 [3, 11]: 0.2 µM
- IC50 [4, 12]: 0.33 µM
- IC50 [5, 13]: 0.4 µM
- IC50 [6, 14]: 0.02 µM
- IC50 [7, 15]: 0.41 µM
- IC50 [8]: 16 nM
- IC50 [9]: 4 nM

From patent publication EP1377579B1 (Aventis Pharmaceuticals Inc., priority 2000, dated 2002)
